Assay results as given in PubChem BioAssay (NCI).
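Tested at 5 concentrations; 48 h exposure; 96-well plates; endpoints linearly interpolated, else capped at highest concentration. GI50 = concentration required for 50% inhibition of growth. TGI is the concentration that stops growth completely.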

Columns and labels:
Experiment in all cases: NCI tumour cell line growth inhibition, 48 h
A498 renal = system: A498 renal
U251 CNS = system: U251 CNS
NCI-H23 lung = system: NCI-H23 lung
M14 melanoma = system: M14 melanoma
SN12C renal = system: SN12C renal
SW-620 colon = system: SW-620 colon
OVCAR-3 ovarian = system: OVCAR-3 ovarian
OVCAR-4 ovarian = system: OVCAR-4 ovarian
LOX IMVI melanoma = system: LOX IMVI melanoma
SNB-19 CNS = system: SNB-19 CNS
K-562 leukemia = system: K-562 leukemia
HCT-116 colon = system: HCT-116 colon
CAKI-1 renal = system: CAKI-1 renal
NCI-H226 lung = system: NCI-H226 lung
OVCAR-5 ovarian = system: OVCAR-5 ovarian
NCI-H460 lung = system: NCI-H460 lung
MDA-N = system: MDA-N
NCI-H522 lung = system: NCI-H522 lung
BT-549 breast = system: BT-549 breast
TK-10 renal = system: TK-10 renal
COLO 205 colon = system: COLO 205 colon
786-0 renal = system: 786-0 renal
UACC-62 melanoma = system: UACC-62 melanoma
SK-MEL-2 melanoma = system: SK-MEL-2 melanoma
HCC-2998 colon = system: HCC-2998 colon
SK-OV-3 ovarian = system: SK-OV-3 ovarian
T-47D breast = system: T-47D breast
DU-145 prostate = system: DU-145 prostate
HOP-62 NSCLC = system: HOP-62 NSCLC
MALME-3M melanoma = system: MALME-3M melanoma
A549 NSCLC = system: A549 NSCLC
PC-3 prostate = system: PC-3 prostate
HT29 colon = system: HT29 colon
SF-539 CNS = system: SF-539 CNS
HCT-15 colon = system: HCT-15 colon
SR leukemia = system: SR leukemia
SF-268 CNS = system: SF-268 CNS
RPMI-8226 leukemia = system: RPMI-8226 leukemia
MCF7 breast = system: MCF7 breast
UO-31 renal = system: UO-31 renal
MDA-MB-231 breast = system: MDA-MB-231 breast
MOLT-4 leukemia = system: MOLT-4 leukemia
HS 578T breast = system: HS 578T breast
CCRF-CEM leukemia = system: CCRF-CEM leukemia
SK-MEL-5 melanoma = system: SK-MEL-5 melanoma
ACHN renal = system: ACHN renal
RXF 393 renal = system: RXF 393 renal
SNB-75 CNS = system: SNB-75 CNS
OVCAR-8 ovarian = system: OVCAR-8 ovarian
MDA-MB-435 = system: MDA-MB-435
KM12 colon = system: KM12 colon
UACC-257 melanoma = system: UACC-257 melanoma
SF-295 CNS = system: SF-295 CNS
IGROV1 ovarian = system: IGROV1 ovarian
EKVX NSCLC = system: EKVX NSCLC
NCI/ADR-RES ovarian = system: NCI/ADR-RES ovarian
HOP-92 NSCLC = system: HOP-92 NSCLC
HL-60(TB) leukemia = system: HL-60(TB) leukemia
SK-MEL-28 melanoma = system: SK-MEL-28 melanoma

SMILES: CCCC(=O)Nc1cc(/C=C/C(=O)N2CC(CCl)c3ccc(N)cc32)n(C)c1 (stereo not given)
- TGI (A498 renal): 0.0523 µM
- TGI (U251 CNS): > 40.9 µM
- TGI (NCI-H23 lung): 0.809 µM
- TGI (M14 melanoma): > 100 µM
- TGI (SN12C renal): 6.62 µM
- TGI (SW-620 colon): > 100 µM
- TGI (OVCAR-3 ovarian): > 100 µM
- TGI (OVCAR-4 ovarian): 0.697 µM
- TGI (LOX IMVI melanoma): > 100 µM
- TGI (SNB-19 CNS): > 43.2 µM
- TGI (K-562 leukemia): > 100 µM
- TGI (HCT-116 colon): 14.1 µM
- TGI (CAKI-1 renal): 0.385 µM
- TGI (NCI-H226 lung): > 100 µM
- TGI (OVCAR-5 ovarian): > 100 µM
- TGI (NCI-H460 lung): 0.796 µM
- TGI (MDA-N): 0.675 µM
- TGI (NCI-H522 lung): 0.0834 µM
- TGI (BT-549 breast): 0.813 µM
- TGI (TK-10 renal): 0.471 µM
- TGI (COLO 205 colon): 0.3 µM
- TGI (786-0 renal): 2.92 µM
- TGI (UACC-62 melanoma): 0.304 µM
- TGI (SK-MEL-2 melanoma): 0.572 µM
- TGI (HCC-2998 colon): 0.34 µM
- TGI (SK-OV-3 ovarian): > 100 µM
- TGI (T-47D breast): 0.601 µM
- TGI (DU-145 prostate): 2.77 µM
- TGI (HOP-62 NSCLC): > 100 µM
- TGI (MALME-3M melanoma): 0.507 µM
- TGI (A549 NSCLC): > 100 µM
- TGI (PC-3 prostate): > 100 µM
- TGI (HT29 colon): > 100 µM
- TGI (SF-539 CNS): 0.429 µM
- TGI (HCT-15 colon): > 100 µM
- TGI (SR leukemia): 0.594 µM
- TGI (SF-268 CNS): > 100 µM

SMILES: O=C(Nc1ccc(Cl)cc1)Nc1ccccc1CNc1nc(Nc2ccc(OCCN3CCCC3)cc2)ncc1Cl
- GI50 (A498 renal): 5.22 µM
- TGI (A498 renal): 12.3 µM
- GI50 (RPMI-8226 leukemia): 1.24 µM
- TGI (RPMI-8226 leukemia): 3.19 µM
- GI50 (NCI-H23 lung): 2.53 µM
- TGI (NCI-H23 lung): 10 µM
- GI50 (M14 melanoma): 0.832 µM
- TGI (M14 melanoma): 1.68 µM
- GI50 (SN12C renal): 0.913 µM
- TGI (SN12C renal): 1.74 µM
- GI50 (MCF7 breast): 0.895 µM
- TGI (MCF7 breast): 1.84 µM
- GI50 (UO-31 renal): 0.782 µM
- TGI (UO-31 renal): 1.59 µM
- GI50 (SW-620 colon): 1.12 µM
- TGI (SW-620 colon): 2.67 µM
- GI50 (MDA-MB-231 breast): 0.888 µM
- TGI (MDA-MB-231 breast): 1.84 µM
- GI50 (MOLT-4 leukemia): 1.19 µM
- TGI (MOLT-4 leukemia): 2.99 µM
- GI50 (HS 578T breast): 7.02 µM
- TGI (HS 578T breast): 19 µM
- GI50 (CCRF-CEM leukemia): 1.32 µM
- TGI (CCRF-CEM leukemia): 3.43 µM
- GI50 (OVCAR-3 ovarian): 0.935 µM
- TGI (OVCAR-3 ovarian): 1.71 µM
- GI50 (SK-MEL-5 melanoma): 0.845 µM
- TGI (SK-MEL-5 melanoma): 1.53 µM
- GI50 (OVCAR-4 ovarian): 0.862 µM
- TGI (OVCAR-4 ovarian): 1.66 µM
- GI50 (LOX IMVI melanoma): 0.901 µM
- TGI (LOX IMVI melanoma): 1.64 µM
- GI50 (SNB-19 CNS): 2.5 µM
- TGI (SNB-19 CNS): 11.6 µM
- GI50 (K-562 leukemia): 1.16 µM
- TGI (K-562 leukemia): 2.82 µM
- GI50 (HCT-116 colon): 0.927 µM
- TGI (HCT-116 colon): 1.85 µM
- GI50 (CAKI-1 renal): 7.44 µM
- TGI (CAKI-1 renal): 14 µM
- GI50 (OVCAR-5 ovarian): 1.1 µM
- TGI (OVCAR-5 ovarian): 2.7 µM
- GI50 (NCI-H460 lung): 0.936 µM
- TGI (NCI-H460 lung): 1.78 µM
- GI50 (ACHN renal): 0.929 µM
- TGI (ACHN renal): 1.78 µM
- GI50 (NCI-H522 lung): 1.18 µM
- TGI (NCI-H522 lung): 2.94 µM
- GI50 (BT-549 breast): 5.87 µM
- TGI (BT-549 breast): 12.6 µM
- GI50 (TK-10 renal): 0.982 µM
- TGI (TK-10 renal): 1.91 µM
- GI50 (RXF 393 renal): 0.898 µM
- TGI (RXF 393 renal): 1.76 µM
- GI50 (SNB-75 CNS): 2.1 µM
- TGI (SNB-75 CNS): 9.28 µM
- GI50 (786-0 renal): 0.871 µM
- TGI (786-0 renal): 1.61 µM
- GI50 (UACC-62 melanoma): 0.903 µM
- TGI (UACC-62 melanoma): 1.78 µM
- GI50 (OVCAR-8 ovarian): 1.25 µM
- TGI (OVCAR-8 ovarian): 3.31 µM
- GI50 (SK-MEL-2 melanoma): 8.99 µM
- TGI (SK-MEL-2 melanoma): 17.4 µM
- GI50 (MDA-MB-435): 0.935 µM
- TGI (MDA-MB-435): 1.93 µM
- GI50 (HCC-2998 colon): 1.22 µM
- TGI (HCC-2998 colon): 3.38 µM
- GI50 (T-47D breast): 6.47 µM
- TGI (T-47D breast): 18 µM
- GI50 (KM12 colon): 1.04 µM
- TGI (KM12 colon): 2.2 µM
- GI50 (DU-145 prostate): 1.22 µM
- TGI (DU-145 prostate): 2.79 µM
- GI50 (UACC-257 melanoma): 0.993 µM
- TGI (UACC-257 melanoma): 2 µM
- GI50 (SF-295 CNS): 7.65 µM
- TGI (SF-295 CNS): 14.6 µM
- GI50 (HOP-62 NSCLC): 1.28 µM
- TGI (HOP-62 NSCLC): 3.88 µM
- GI50 (MALME-3M melanoma): 0.828 µM
- TGI (MALME-3M melanoma): 1.59 µM
- GI50 (A549 NSCLC): 1.49 µM
- TGI (A549 NSCLC): 4.49 µM
- GI50 (IGROV1 ovarian): 1.62 µM
- TGI (IGROV1 ovarian): 5.72 µM
- GI50 (EKVX NSCLC): 1.55 µM
- TGI (EKVX NSCLC): 6.63 µM
- GI50 (PC-3 prostate): 1.07 µM
- TGI (PC-3 prostate): 2.35 µM
- GI50 (HT29 colon): 1.19 µM
- TGI (HT29 colon): 3.28 µM
- GI50 (SF-539 CNS): 0.863 µM
- TGI (SF-539 CNS): 1.61 µM
- GI50 (HCT-15 colon): 1.01 µM
- TGI (HCT-15 colon): 2.6 µM
- GI50 (NCI/ADR-RES ovarian): 1.16 µM
- TGI (NCI/ADR-RES ovarian): 2.64 µM
- GI50 (HOP-92 NSCLC): 0.985 µM
- TGI (HOP-92 NSCLC): 2.77 µM
- GI50 (HL-60(TB) leukemia): 1.05 µM
- TGI (HL-60(TB) leukemia): 2.19 µM
- GI50 (SR leukemia): 1.7 µM
- TGI (SR leukemia): 50 µM
- GI50 (SF-268 CNS): 1.29 µM
- TGI (SF-268 CNS): 4.04 µM
- GI50 (SK-MEL-28 melanoma): 0.855 µM
- TGI (SK-MEL-28 melanoma): 1.58 µM
